Measurements taken from patent US12637425B2, “Compounds and formulations for treating ophthalmic diseases” (Visus Therapeutics, Inc., priority 2020, dated 2026).

Key:
[1] = target: T1, Recombinant cryAB(R120G) protein (Homo sapiens, UniProt P02511, R120G); assay: Kinetic turbidity aggregation assay of recombinant cryAB(R120G); type: biochemical
T1 sequence (P02511 1-175 R120G): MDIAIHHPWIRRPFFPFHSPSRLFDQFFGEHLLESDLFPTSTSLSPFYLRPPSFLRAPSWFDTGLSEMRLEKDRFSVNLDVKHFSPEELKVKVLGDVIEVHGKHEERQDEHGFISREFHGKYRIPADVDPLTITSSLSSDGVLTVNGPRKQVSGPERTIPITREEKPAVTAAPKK
Summary of the method: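 Recombinant human cryAB R120G at 15 μM final in 50 mM Tris, 100 mM NaCl, 5 mM DTT, 0.01% Triton X-100, 0.05% PEG-8000 with 4% DMSO. Compounds added from 2-fold serial DMSO dilutions, run in quadruplicate; aggregation followed kinetically by turbidity.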

[2] = target: T2, Alpha-Crystallin Domain of alpha B crystallin containing the E117C mutation (Homo sapiens, UniProt P02511, E117C); assay: CryAB binding assay (MicroScale Thermophoresis, direct binding); conditions: 100 nM Cy5-labeled protein, Tris buffer pH 8
T2 construct: the Alpha-Crystallin Domain of alpha B crystallin containing the E117C mutation
T2 sequence (P02511 56-164 E117C limits assumed): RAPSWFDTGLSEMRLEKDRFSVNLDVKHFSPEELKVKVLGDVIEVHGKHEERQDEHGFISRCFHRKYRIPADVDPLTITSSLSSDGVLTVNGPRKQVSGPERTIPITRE
Description: Example A-2: CryAB Binding Assay
Affinities were determined by MicroScale Thermophoresis using a direct binding assay. Briefly, the Alpha-Crystallin Domain of alpha B crystallin containing the E117C mutation was alkylated with a Cy5 dye and monitored for binding at 100 nM protein in Tris buffer pH 8, containing 0.1% PEG-8000, 0.05% Tween-20, and 5% DMSO. Binding assays were performed by titrating ligand against a mixture of the dye-labeled protein and monitoring fluorescence changes indicating binding. Based on observed fluorescence measurements for each compound titration a KD was calculated using the Law of Mass Action equation.

SMILES: CN(C)C(CNS(=O)(=O)c1ccc2cc[nH]c2c1)c1cn(C)c2ccccc12 (centres unmarked) [Compound 10, N-(2-(dimethylamino)-2-(1-methyl-1H-indol-3-yl)ethyl)-1H-indole-6-sulfonamide]
- inhibition at 25 µM ([1]; 25 μM compound, 15 μM cryAB(R120G), 42° C., absorbance at 550 nm, read-out: % Inhibition of Protein Aggregation, 25 μM cmpd): 69.8%
- inhibition at 100 µM ([1]; 100 μM compound, 15 μM cryAB(R120G), 42° C., absorbance at 550 nm, read-out: % Inhibition of Protein Aggregation, 100 μM cmpd): 98.7%
- inhibition at 400 µM ([1]; 400 μM compound, 15 μM cryAB(R120G), 42° C., absorbance at 550 nm, read-out: % Inhibition of Protein Aggregation, 400 μM cmpd): 99.7%
- IC50 ([1]; inhibition of cryAB(R120G) protein aggregation): 10 to 50 µM
- Kd [2]: 10 to 50 µM
